Experiments:
[1] = tested on: juvenile hippocampal slices; experiment: Subthreshold LFS: Aβ1-42-induced LTD; format: cell-based, Sprague Dawley rats; settings: for basal synaptic transmission: 10 nM; for synaptic transmission after LFS (magnitude of Aβ1-42-induced LTD): 10 nM plus Aβ1-42
Protocol: Parasagittal hippocampal slices (300 μm) were prepared from either P13-21 or 12-24-week-old male Sprague Dawley rats as previously (Moult et al. 2010). Brains were rapidly removed and placed in ice-cold artificial CSF (aCSF; bubbled with 95% O2 and 5% CO2) containing the following (in mm): 124 NaCl, 3 KCl, 26 NaHCO3, 1.25 NaH2PO4, 2 CaCl2, 1 MgSO4, and 10 d-glucose. Once prepared, parasagittal slices were allowed to recover at room temperature in oxygenated aCSF for 1 h before use. Slices were transferred to a submerged chamber maintained at room temperature and perfused with artificial cerebrospinal fluid at 2 ml min^−1. Standard extracellular recordings were used to monitor evoked field excitatory postsynaptic potentials (fEPSP) from stratum radiatum. The Schaffer collateral-commissural pathway was stimulated (constant voltage; 0.1 ms) at 0.033 Hz, using a stimulus intensity that evoked a peak amplitude ˜50% of the maximum. Synaptic potentials were low pass filtered at 2 kHz and digitally sampled at 10 kHz. The fEPSP slope was measured and expressed relative to baseline. Synaptic records are the average of 4 consecutive responses and stimulus artefacts are blanked for clarity. Recordings were made using an Axopatch 200B amplifier and analyzed using LTP v2.4 software. In synaptic plasticity studies, the degree of potentiation was calculated 30-35 min after HFS and expressed as a percentage of baseline±standard error of mean (SEM).
It is known that oligomeric Aβ promotes the induction of LTD (Shankar et al. 2008) and that exposure to a low concentration of leptin (10 nM) prevents facilitation of hippocampal LTD by Aβ1-42 (Doherty et al. 2013). Thus we assessed if either of the leptin fragments mirror leptin action. Initially we verified that leptin prevented Aβ1-42-induced LTD. […] Furthermore, leptin (10 nM) reduced the magnitude of Aβ1-42-induced LTD such that LFS depressed synaptic transmission to 101±5.3% of baseline in leptin-treated slices (n=4; P>0.05; FIG. 4B). To establish if the leptin fragments mirrored leptin action the effects of leptin (116-130) or leptin (22-56) were also examined.

[2] = tested on: differentiated human neural cells (SH-SY5Y); experiment: LDH release assay (membrane leakage, cell death); format: cell-based; settings: for reduction of LDH release compared with Aβ1-42 alone, hexamer study: n=11; for reduction of LDH release in Aβ1-42 treated cells: n=5; for reduction of LDH release compared with CuCl2 alone: 5 μM CuCl2
Protocol: (§1) The human neuroblastoma cell line, SH-SY5Y (ECACC, UK) was maintained in Dulbecco's Modified Eagle Medium supplemented with glucose ([…]) and 10% (v/v) cosmic calf serum (Fisher Scientific, UK) at 37° C. in a humidified atmosphere of 5% CO2, 95% air and allowed to reach 70-80% confluence before seeding. Cells (passage 10-18) were plated at 10 000 cells per well in 96 well tissue culture plates (Nunc, VWR, UK) and at a density of 2×10^5 cells in 35 mm dishes for protein extraction. To induce differentiation, cells were cultured in DMEM supplemented with glucose ([…]), 1% (v/v) cosmic calf serum and 10 μM retinoic acid for 5 days. Thereafter they were incubated in DMEM supplemented with glucose ([…]), serum replacement 2 (2%; Sigma, UK) and 18 μM 5-fluorodeoxyuridine to inhibit proliferation of undifferentiated cells. The 50% of the medium was changed every 2-3 days and pharmacological treatment was carried out 7 days after switching to this medium. Reagents used were (from Sigma UK unless stated) 0.1-10 nM human leptin and leptin (116-130); 0.1-10 nM leptin (22-56; Bachem; Switzerland); 10 nM leptin (116-121) leptin (117-122), leptin (124-129) or leptin (125-130; all Severn Biotech, UK); 5 μM copper chloride; […], 5 μM WP1066 or 50 nM wortmannin. All treatments were added to the culture at the same time and survival assays were carried out after 96 h treatment. Protein samples for signaling ELISA were extracted 3 h after exposure to the relevant reagents and for biomarker expression after 72 hours.
The concentration of lactate dehydrogenase (LDH) in the culture medium or the mitochondrial activity within cells was used to monitor the level of cell death, as previously (Oldreive and Doherty 2010). In certain experiments, a Crystal violet assay was used to assess total cell number. Cells were fixed in neutral buffered formalin and washed 3 times in PBS prior to staining with 0.01% crystal violet acetate for 5 min. Plates were washed 5-10 times in dH2O and cells solubilised in 100 μl dimethyl sulfoxide (DMSO) before reading the absorbance on a Biohit BP100 plate reader. For all assays, data is expressed as percentage relative to control, untreated wells to normalize for differences in plating density between individual experiments.
To determine whether leptin (116-130) has neuroprotective actions, the effects of leptin (116-130) on the viability of differentiated human neural cells (SH-SY5Y) was examined after exposure to either 5 μM CuCl2 or 10 μM Aβ1-42. Cells were treated with the toxin alone or with a range of concentrations (10-0.1 nM) of leptin or leptin (116-130). […] Thus like leptin, treatment with leptin (116-130) reduces neuronal death in response to AD-linked toxins in vitro.

[3] = tested on: phosphorylated tau (p-tau); experiment: ELISA of phosphorylated tau relative to α-tubulin; format: cell-based, human; settings: 10 nM; n=5
Protocol: as §1
Protein from cultures was extracted into 500 μl Tris-buffered saline containing protease inhibitor cocktail, and a Bradford assay used to determine protein concentration. Samples were diluted to give equal loading onto ELISA plates. Commercially available ELISA kits were used in accordance with the manufacturer's instructions to determine the ratio of pan-STAT3 to phospho-STAT3 (Sigma, UK) and pan-Akt to phospho-Akt (Sigma, UK) and the levels of alpha-tubulin and phosphorylated tau (Sigma, UK). Each protein sample was run in duplicate using samples derived from at least 5 biological repeats.
Hyper-phosphorylation of tau is the underpinning mechanism of the development of neurofibrillary tangles—one of the key pathological feature of AD. Human SH-SY5Y neuronal cells were exposed to Aβ1-42 alone or in combination with 10 nM leptin, leptin (116-130), leptin (116-121), leptin (117-122), leptin (124-129) or leptin (125-130). Protein was extracted for ELISA assay and the ratio of p-tau to the house-keeping protein α-tubulin determined (FIG. 11C). […] Thus for Aβ1-42-treated cells, 10 nM leptin and 10 nM leptin (116-130) reduced p-tau expression by 56.2±8.0% and 58.9+4.6% respectively compared with Aβ1-42 alone (n=5; P<0.001; FIG. 11C); an effect that was mirrored by 10 nM leptin (116-121) and leptin (117-122); 58.1±4.0% and 45.48±6.1% (n=5; P<0.001 and P<0.01 respectively; FIG. 11C), but not by 10 nM leptin (124-129) or leptin (125-130)(n=5; P>0.5; FIG. 11C).

Substance | reduction of LDH release compared with Aβ1-42 alone, hexamer study ([2]; 10 nM, 10 μM Aβ1-42) | reduction of p-tau expression compared with Aβ1-42 alone [3] | basal synaptic transmission [1] | synaptic transmission after LFS (magnitude of Aβ1-42-induced LTD) [1] | reduction of LDH release in Aβ1-42 treated cells ([2]; 0.1 nM, 10 μM Aβ1-42) | reduction of LDH release compared with CuCl2 alone ([2]; 10 nM) | reduction of LDH release in Aβ1-42 treated cells ([2]; 10 nM, 10 μM Aβ1-42) | other results
Aβ1-42: amyloid beta 1-42, toxin used in the AD models [reference compound] | – | – | – | – | – | – | – | synaptic transmission after subthreshold LFS (LTD), Aβ1-42 alone ([1]; vehicle-treated slices 94±5.6%): 73±3.8 % of baseline; increase in LDH release, Aβ1-42 alone ([2]; 10 μM Aβ1-42): 26.7±4.4%
CSLPQT (listed as Mus musculus) [leptin (117-122)] | 27.4±3.5% | 45.48±6.1% | – | – | – | – | – | –
SCSLPQ (listed as Mus musculus) [leptin (116-121)] | 27.1±3.1% | 58.1±4.0% | – | – | – | – | – | –
SCSLPQTSGLQKPES (listed as Mus musculus) [leptin (116-130)] | 24.0 ± 2.2% | 58.9 ± 4.6% | no significant effect on basal synaptic transmission | 94±5.2 % of baseline | 26.7±17.3% | 45.6±2.92% | 46.6±9% | increase in LDH release with PI3-kinase inhibitor ([2]; leptin (116-130) and Aβ1-42-treated cells plus wortmannin (50 nM)): 26.9±9.8%; increase in LDH release with STAT3 inhibitor ([2]; leptin (116-130) and Aβ1-42-treated cultures plus WP1066 (5 μM)): 18.3±3.2%
leptin (22-56): leptin fragment amino acids 22-56 (Bachem), comparison fragment (VPIQKVQDDTKTLIKTIVTRINDISHTQSVSSKQK; UniProt P41159 22-56, looked up, fragment) [reference compound] | – | – | no significant effect on basal synaptic transmission | 73±4.0 % of baseline | – | – | – | –
leptin: the metabolic hormone leptin, whole (full length) leptin molecule; human leptin from Sigma in SH-SY5Y work | 25.3±2.5% | 56.2±8.0% | – | 101±5.3 % of baseline | 31.8±13.2% | 39.5±2.73% | 47.9±7.45% | –
